Source: patent publication US6743802B2, “Alkyne-aryl phosphodiesterase-4 inhibitors” (Merck Frosst Canada & Co., priority 2001, dated 2004)

Tested on: TNF-α and LTB4
Assay: LPS and FMLP-induced TNF-α and LTB4 assays in human whole blood
Format: cell-based
Conditions: LPS 1 μg/mL 24 h, then LPS and fMLP 1 μM challenge, marker (TNF-α or LTB4) not specified
Procedure: Whole blood provides a protein and cell-rich milieu appropriate for the study of biochemical efficacy of anti-inflammatory compounds such as PDE4-selective inhibitors. […] Upon stimulation with LPS, activated monocytes express and secrete TNF-α up to 8 hours and plasma levels remain stable for 24 hours. Published studies have shown that inhibition of TNF-α by increasing intracellular cAMP via PDE4 inhibition and/or enhanced adenylyl cyclase activity occurs at the transcriptional level. […] As there is little LTB4 produced during a 24 hour LPS stimulation of whole blood, an additional LPS stimulation followed by fMLP challenge of human whole blood is necessary for LTB4 synthesis by activated neutrophils. Thus, by using the same blood sample, it is possible to evaluate the potency of a compound on two surrogate markers of PDE4 activity in the whole blood by the following procedure.
Fresh blood was collected in heparinized tubes by venipuncture from healthy human volunteers (male and female). These subjects had no apparent inflammatory conditions and had not taken any NSAIDs for at least 4 days prior to blood collection. 500 μL aliquots of blood were pre-incubated with either 2 μL of vehicle (DMSO) or 2 μL of test compound at varying concentrations for 15 minutes at 37° C. […]

IC50: 10 to 2400 nM
Compound: CC(C)NC(=O)c1cn(-c2cccc(C#Cc3cccc(C(C)(C)O)n3)c2)c2ncccc2c1=O [Example 28, N-Isopropyl-1-{3-[6-(1-hydroxy-1-methylethyl)-2-pyridinylethynyl]phenyl}-1,4-dihydro [1,8]naphthyridin-4-one-3-carboxamide]
